In patent US12103946B2, “Steroid compounds as Treg modulators and uses thereof” (New York University, priority 2018, dated 2024):
Entries after “also recorded” stand apart in the source; their conditions may differ.

Key:
[1] = tested on: naïve CD4+ T cells (Th17 differentiation, IL-17a); assay: In vitro Th17 differentiation, IL-17a staining by flow cytometry; type: cell-based, mouse
Excerpt: (§1) Our screen included both primary bile acids, synthesized by the host, and secondary bile acids, produced by bacterial modification of primary bile acids (FIG. 5). Naïve CD4^+ T cells were isolated from wild-type C57BL/6J (B6) mice and cultured with bile acids under Th17 differentiation conditions and, as a counter-screen, Treg differentiation conditions (FIG. 6).
(§2) In Vitro T Cell Culture. Naïve CD4^+ (CD62L^+ CD44^− CD25^− CD4^+) T cells were isolated from the spleens and the lymph nodes of mice of designated genotypes with FACS sorting. For certain experiments, naïve CD4^+ T cells were enriched using naïve CD4^+ T cell isolation kits (Miltenyi). Naïve CD4^+ T cells (40,000 cells) were cultured in a 96-well plate pre-coated with hamster IgG (MP Biomedicals) in T cell medium (RPMI, 10% fetal bovine serum, 25 mM glutamine, 55 μM 2-mercaptoethanol, 100 U/mL penicillin, […] streptomycin) supplemented with 0.25 μg/mL anti-CD3 (clone 145-2C11) and 1 μg/mL anti-CD28 (clone 37.51). For Th0 culture, T cells were cultured with the addition of 100 U/mL of IL-2 (PEPROTECH). For Th1 cell differentiation, T cells were cultured with the addition of 100 U/mL of IL-2, 10 μg/mL of anti-IL-4 (clone 11B11) and 10 ng/mL of IL-12 (PEPROTECH). For Th2 cell differentiation, T cells were cultured with the addition of 10 μg/mL of anti-IFNγ (clone XMG1.2) and 10 ng/mL of IL-4 (R&D Systems). For Th17 cell differentiation, T cells were cultured with the addition of 10 ng/mL of IL-6 (eBioscience) and 0.5 ng/mL of TGF-β (PEPROTECH). For Treg culture, T cells were cultured with the addition of 100 U/mL of IL-2 and various concentrations of TGF-β. […] Bile acids, retinoic acid (Sigma) or mitoQ (Focus Biomolecules), or mitoPQ (Sigma) were added either at 0 or 16 h time points. Compounds with low water solubility were sonicated before adding to the culture. Cells were harvested and assayed by flow cytometry on day 3. For ROS and mitochondrial membrane potential detection, cells cultured for 2 days were incubated with 5 μM of mitoSOX (ThermoFisher), 10 μM of DCFDA (Sigma) or 2 μM of JC-1 (ThermoFisher) for 30 min and assayed with flow cytometry.
(§3) Flow Cytometry. Cells harvested from in vitro culture or in vivo mice experiments were stimulated with 50 ng/mL PMA (Phorbol 12-myristate 13-acetate, Sigma) and 1 μM ionomycin (Sigma) in the presence of GolgiPlug (BD) for 4 h to determine cytokine expression. After stimulation, cells were stained with cell surface marker antibodies and LIVE/DEAD Fixable dye, Aqua, to exclude dead cells, fixed and permeabilized with a FoxP3/Transcription factor staining kit (eBioscience), followed by staining with cytokine- and/or transcription factor-specific antibodies. All flow cytometry analyses were performed on an LSR II flow cytometer (BD) and data were analyzed with FlowJo software (TreeStar).

[2] = tested on: fusion protein of RORγt and Gal4-DBD; assay: RORγt luciferase reporter assay in HEK293 cells; type: cell-based, human; details: ML209 2 μM, bile acids 10 μM
Procedure: (§4) Data are shown as the mean±standard deviation by unpaired t-test with 2-tailed p-value.
We next examined if 3-oxoLCA physically interacts with the RORγt protein in vitro. A microscale thermophoresis (MST) assay was performed with recombinant human RORγt ligand-binding domain (LBD). […] Next, we examined if 3-oxoLCA modulates the transcriptional activity of RORγt. We assayed the effect of the bile acids on firefly luciferase expression directed by a fusion protein of RORγt and Gal4-DBD (DNA-binding domain) in human embryonic kidney (HEK) 293 cells^14.

[3] = tested on: lamina propria CD4+ T cells (Th17, Treg); assay: Anti-CD3 injection gut inflammation model, bile acid diet; type: in vivo, mouse; details: 1% diet
Procedure: as §4
Cells were then analyzed by flow cytometry.

CD4+ T cells = tested on: CD4+ T cells
Excerpt: Representative FACS plots of CD4^+ T cells cultured for 3 days and stained intracellularly for FoxP3 (e). Quantification of FoxP3^+ and viable T cells after 3-day culture (f) (n=2/group). n, number of biologically independent samples. Data are representative of two independent experiments (b, d). Data in (c) are shown as the mean±standard deviation.
Naïve CD4^+ T cells were isolated from FoxP3-IRES-GFP mice. d, Flow cytometry of CD4^+ T cells stained intracellularly for FoxP3. Naïve CD4^+ T cells isolated from WT, CNS1, CNS2 or CNS3 knockout mice (n=3/group) were cultured with anti-CD3/28 and IL-2, LCA (20 μM), TGF-β (0.05 ng/ml) and additional retinoic acid (RA; 1 ng/ml). e and f, Flow cytometry (e) and its quantification (f) of CD4^+ T cells stained intracellularly for FoxP3. […] Data are representative of two independent experiments (c, d). Data are shown as the mean±standard deviation by unpaired t-test with 2-tailed p-value.
as §3

[4] = tested on: naïve CD4+ T cells (Treg differentiation, FoxP3); assay: In vitro Treg differentiation, FoxP3 staining by flow cytometry; type: cell-based, mouse
Excerpt: To determine if bile acids influence T cell functions, the present inventors performed a small-scale screening assay with a small molecule library comprising secondary bile acids with in vitro Treg differentiation as a read-out. Naïve CD4^+ T lymphocytes were sorted from wild-type B6 mice and cultured in the presence of a TCR stimulus, interleukin 2 (IL-2), and different amounts of TGFβ (optimized for Treg differentiation). Treg differentiation was quantified at the single cell level by staining with an antibody specific for FoxP3, followed by flow cytometry analysis. Retinoic acid, a known enhancer of Treg differentiation, was used as a positive control.
as §1, §2, §3

C[C@H](CCC(=O)O)[C@H]1CC[C@H]2[C@@H]3CC[C@@H]4CC(=O)CC[C@]4(C)[C@H]3CC[C@]12C [3-oxoLCA, 3-oxolithocholic acid]
suppression of Th17 cells in VDR or FXR knockout cells ([1]; 20 μM): VDR and FXR also failed to contribute to the suppressive activities
Th17 cell differentiation (IL-17a) ([1]; bile acids 20 μM, 3 days, IL-6 and TGF-β): dose-dependent effects; also recorded: inhibited Th17 differentiation
RORγt reporter activity [2]: significantly reduced the RORγt reporter activity
Th17 cell levels after anti-CD3 injection [3]: reduced Th17 cell levels
cell viability (CD4+ T cells): do not significantly affect cell proliferation, cell viability
effect on Treg differentiation induced by isoalloLCA ([4]; 3-oxoLCA 20 μM + isoalloLCA 20 μM): further enhanced Treg differentiation induced by isoalloLCA in vitro
Treg differentiation (FoxP3 expression) ([4]; bile acids 20 μM, 3 days, anti-CD3/28, IL-2): did not affect Tregs
